Assay results taken from patent US20030211163A1, “Combination antiviral therapy” (priority 2002, published 2003).
Values after ≈ are worked out from the molar mass of the structure shown. Where two headings read alike, the source gives them in different places.

Key:
[1] = Solubility of the drug in vehicles (drug saturated solutions); assay type: physicochemical
[2] = Franz diffusion cell skin drug permeation through cadaver skin, 24 hour period, HPLC; assay type: in vitro ADME; conditions: for Flux: cadaver skin; for Skin Flux: Table 4 (examples)
Method: As a way of measuring the skin drug permeation properties of the COX-2 inhibitors, a Franz diffusion cell was provided utilizing cadaver skin as the membrane and a 1% Tween 80 solution as the receptor phase. Frozen cadaver skin was thawed at room temperature and punched with a 20 mm puncher. The receptor compartment of the Franz diffusion cell was filled with 1% Tween 80 solution and the diffusion cells maintained at 32° C. A 6% polyethylene glycol-20-oleyl ether is also suitable as a receptor fluid. The skin was mounted on the receptor, covered with the cup and fastened by a clamp. The air bubbles were removed from the receptor fluid and it was allowed to equilibrate for 30 minutes. COX-2 pharmaceutical compositions, according to the present invention, were brought into contact with the cadaver skin and the amount of drug which permeated through the cadaver skin in a 24 hour period was determined by high performance liquid chromatography.

[3] = Table 1, drug saturated solution, vehicle 70% EtOH, 32° C.
[4] = Table 1, drug saturated solution, vehicle EtOH
[5] = Table 6 (examples), Saturated Cb in 5% Pb, 67% EtOH
[6] = Table 6 (examples), Saturated Vb in 5% Pb, 67% EtOH

solubility ([1]; 70% aqueous ethanol, aqueous with cosolvent or surfactant or cyclodextrin, thermodynamic from solid, Table 1, drug saturated solution, vehicle 70% EtOH, read-out: Solubility) [mg/mL]	solubility ([1]; Table 2, 70% aqueous ethanol solution) [mg/mL]	solubility ([1]; ethanol, organic solvent or mixture, thermodynamic from solid, Table 1, drug saturated solution, vehicle EtOH, read-out: Solubility) [mg/mL]	solubility ([1]; polyethylene glycol 400, organic solvent or mixture, thermodynamic from solid, Table 1, drug saturated solution, vehicle PEG 400, read-out: Solubility) [mg/mL]	solubility ([1]; propylene glycol, organic solvent or mixture, thermodynamic from solid, Table 1, drug saturated solution, vehicle PG, read-out: Solubility) [mg/mL]	Flux [2, 3] [μg/cm^2 · day]	Flux [2, 4] [μg/cm^2 · day]	Flux [2, 5] [μg/cm^2 · day]	solubility ([1]; aqueous with cosolvent or surfactant or cyclodextrin, thermodynamic from solid) [mg/mL]	Flux [2, 6] [μg/cm^2 · day]	Effect as permeation enhancer on transdermal delivery of selective COX-2 drugs across the skin ([2]; parecoxib used as permeation enhancer)	Skin Flux ([2]; % w/w: water 30, ethanol 30, isopropanol 10, 1,3-butanediol 22, oleyl alcohol 5, thymol 3) [μg/cm^2 · day]	Skin Flux ([2]; % w/w: water 30, ethanol 62, oleyl alcohol 5, thymol 3) [μg/cm^2 · day]	Skin Flux ([2]; % w/w: water 33, ethanol 62, oleyl alcohol 5) [μg/cm^2 · day]	Structure (SMILES)
15.2 (≈ 39.9 mM)	15.2 (≈ 39.9 mM)	91.4 (≈ 240 mM)	297 (≈ 779 mM)	33.3 (≈ 87.3 mM)	15.7	5.62	183 ± 153							Cc1ccc(-c2cc(C(F)(F)F)nn2-c2ccc(S(N)(=O)=O)cc2)cc1 [Celecoxib, celecoxib]
							74.7 ± 14.7	386 (≈ 1040 mM)	64.1 ± 11.3	increase the transdermal delivery				CCC(=O)NS(=O)(=O)c1ccc(-c2c(-c3ccccc3)noc2C)cc1 [Parecoxib, parecoxib]
					12.8	1.44			108 ± 16.7		302 ± 48.9	441 ± 160	287 ± 23.9	Cc1onc(-c2ccccc2)c1-c1ccc(S(N)(=O)=O)cc1 [Valdecoxib, valdecoxib]
